Data published in patent publication US9034857B2 (Health Research, Inc., priority 2010, dated 2015).
Entries after “also recorded” stand apart in the source; their conditions may differ. Where two headings read alike, the source gives them in different places.

Assays:
[1] = test system: O2- in stationary phase cells; test: Levels of O2- detected by DHE fluorescence in stationary phase cells; assay type: cell-based, Saccharomyces cerevisiae; settings: for Superoxide anions: Table 2 summary, stationary phase
Procedure: The following materials and methods were used to obtain the data presented in this Example. To assess CLS 50 ml cultures were inoculated with 1% (v/v) of a fresh overnight culture in either SC or YPD. SC was supplemented using known techniques. In experiments that employed media that initially contained 10% glucose, control 2% glucose cultures also contained 8% sorbitol to maintain equivalent osmolarity. Determination of chronological life span, fraction of budded cells, flow cytometry measurements of DNA content and measurements of dihydroethidium (DHE) and dihydrorhodamine 123 (DHR) were used according to standard methods. N-acetylcysteine (NAC) and glutathione (GSH) were dissolved in growth medium, filter sterilized and added to cultures from 100 mM (NAC) or 250 mM (GSH) stocks at the start of experiments. Propidium iodide (PI) was used to assess viability of cells by mixing a 2 μl of cells with an equal volume of 1 mM PI on a microscope slide and examining the slide with a fluorescence microscope equipped with a Texas Red filter. Non-fluorescent cells were scored as intact (live) and fluorescent cells were scored as dead. The total number of cells in cultures was determined by particle counts using a Petroff Hauser counting chamber. Samples for transmission electron microscopy were prepared using standard methods. Briefly, cells cultured at 30° C. in YPD medium for 3 to 5 days were harvested by gentle centrifugation, washed in phosphate buffered saline (PBS) (pH=7.2), resuspended in 2.5% (v/v) glutaraldehyde in PBS and fixed for 40 min at room temperature. Cells were further fixed by 2% freshly prepared potassium permanganate in water for 1 hour at room temperature. Fixed cells were dehydrated with 30%, 50%, 75%, 85%, 95%, and 100% ethanol. Cells were transitioned with propylene oxide, infiltrated in Spurr resin (Electron Microscopy Sciences, PA). Resin was polymerized at 65° C. overnight in the oven. 60 nm ultrathin sections were cut with a diamond knife, stained with 2% uranyl acetate and lead citrate and examined using a Hitachi H-7000 electron microscope, equipped with a 4K×4K cooled CCD digital camera (Gatan, Inc., CA). Values presented in graphs that contain error bars represent means and standard deviations from three or more independent experiments. Other results are representative of at least three independent experiments. Statistical analyses were performed using Student's t-test. P<0.05 was considered statistically significant.

[2] = test system: intracellular O2- in stationary phase budding yeast cells; test: High throughput flow cytometry DHE screen for reduction of superoxide in stationary phase budding yeast; assay type: cell-based, S. cerevisiae
[3] = test system: interleukin-6 release from human macrophages; test: Interleukin-6 release from human macrophages; assay type: cell-based
Saccharomyces cerevisiae = test: Chronological lifespan (CLS) of budding yeast; assay type: cell-based
mammalian cells = settings: cited from earlier work
budding yeast = settings: cited from earlier work
ribonucleotide reductase = settings: low levels of hydroxyurea; cited from earlier work

With N[C@@H](CCC(=O)N[C@@H](CS)C(=O)NCC(=O)O)C(=O)O [GSH, glutathione] the Superoxide anions [1] was “↓” and the “levels of O2- (DHE fluorescence)” value ([1]; wild type cells, day 3 of medium depletion) was “reduced levels of O2-”.

With Cc1ccc(-c2nn(C(C)(C)C)c3ncnc(N)c23)cc1 [MLS000326642, 1-tert-butyl-3-(4-methylphenyl)pyrazolo[3,4-d]pyrimidin-4-amine] the “dose dependency in re-screening (reduction of superoxide, DHE)” value [2] was “identified by dose dependency; also recorded: exhibited dose dependency”, the “reducing superoxide anions in S. cerevisiae” value [2] was “reducing superoxide anions” and the “inhibition of interleukin-6 release” value [3] was “inhibit interleukin-6 release”.

In the case of c1ccc2nc3cc4[nH]cnc4cc3nc2c1 [MLS000700045, 1H-imidazo[4,5-b]phenazine], the “reducing superoxide anions in S. cerevisiae” value [2] is reported as “reducing superoxide anions”, the “dose dependency in re-screening (reduction of superoxide, DHE)” value ([2]; dose response assays from 0.004 uM to 30 uM, 7 day incubation, 7% glucose) is reported as “identified by dose dependency; also recorded: exhibited dose dependency” and the “inhibition of interleukin-6 release” value [3] is reported as “inhibit interleukin-6 release”.

In the case of CC(=O)N[C@@H](CS)C(=O)O [N-acetylcysteine], the “chronological lifespan (CLS)” value (Saccharomyces cerevisiae; sch9Δ cells) is reported as “not sch9Δ cells”, the “chronological lifespan (CLS)” value (Saccharomyces cerevisiae; wild type cells, listed as NAC) is reported as “shortened CLS in a dose-dependent fashion; also recorded: shorten CLS” and the “levels of O2- (DHE fluorescence)” value [1] is reported as “absent”. The Superoxide anions [1] was “↑”, the “levels of O2- (DHE fluorescence)” value ([1]; wild type cells, day 3 of medium depletion, listed as NAC) was “dose-dependent increases; also recorded: elevate O2- levels” and the “induction of O2-” value (mammalian cells) was “induction of O2-”.

With O=C(Nc1ccccc1-c1cn2c(CN3CCNCC3)csc2n1)c1cnc2ccccc2n1 [SRT1720, reference compound] the “reducing superoxide anions in S. cerevisiae” value [2] was “reducing superoxide anions” and the “inhibition of interleukin-6 release” value [3] was “inhibit interleukin-6 release”.

For COC1=C(OC)C(=O)C(C/C=C(\C)CC/C=C(\C)CC/C=C(\C)CC/C=C(\C)CC/C=C(\C)CC/C=C(\C)CC/C=C(\C)CC/C=C(\C)CC/C=C(\C)CCC=C(C)C)=C(C)C1=O [coenzyme Q10], the pro-oxidant effects (budding yeast) is listed as “pro-oxidant effects”.

In the case of NC(=O)NO [hydroxyurea], the “shortening of CLS” value (ribonucleotide reductase) is given as 20-27%.

In the case of Cc1c(C)c2c(c(C)c1O)CC[C@@](C)(CCC[C@H](C)CCC[C@H](C)CCCC(C)C)O2 [α-tocopherol], the pro-oxidant effects (budding yeast) is given as “pro-oxidant effects”.
